# Reference: US11229635B2, “Method of treating fibrosis” (BCN Biosciences L.L.C., priority 2016, dated 2022)
# Assays:
# [1] = tested on: cancer cell lines (leukemia, breast, CNS, colon, melanoma, non-small cell lung, ovarian, prostate, renal); test: NCI cancer cell line growth screen (percent growth over 48 h, sulforhodamine B); format: cell-based
# plasma cytokines = test: Mouse Cytokine panel ELISA Array of plasma after irradiation; format: in vivo; details: irradiated mice (7 G), 200 mg/kg SC Day 1 to 7, blood Day 8
# Protocol: Mice were irradiated on Day 0. Animals were dosed with drug for 7 consecutive days (Day 1 to 7) at 200 mg/kg SC, with terminal blood collection on Day 8. Plasma from 3 mice was pooled for each condition Y axis represents relative absorbance units.
# The plasma was tested with the Mouse Cytokine panel ELISA Array panel—by SIGNOSIS™
# [2] = tested on: bone marrow hematopoietic stem cells (HSCs); test: Total body irradiation survival (hematopoietic suppression); format: in vivo, C3H/HeN mice; details: 7.75 Gy TBI, 30 day; male 50 mg/kg, female 25 mg/kg C3H/HeN mice
# Protocol: FIG. 8A-C: (A) Kaplan Meier Plot of Male C3H/HeN mice 7.75Gy 30 Day TBI (n=30) 50 mg/kg BCN057. (B). Kaplan Meier Plot of Female C3H/HeN mice 7.75Gy 30 Day TBI (n=10) 25 mg/kg BCN057. (C) Cytokine Profile in Plasma Male C3H/HeN mice 7.75Gy TBI Day 8 receiving BCN057.
# 7.75 Gy radiation is used to ablate bone marrow hematopoietic stem cells (HSCs) in these strains of mice. […] Lethality from bone marrow suppression occurs in the 14-25 day region due to the life cycle of approximately 2 weeks for RBC and inability to replace them without HSCs
# 7.73 Gy radiation is used to ablate bone marrow HSCs in the C3H strain of mice.
# hematopoietic system = test: Recovery of the hematopoietic system following 6 Gy irradiation; format: in vivo; details: C3H mice, s.c. at 24, 48, 72, 96, and 120 hrs
# Excerpt: Recovery of the hematopoietic system following 6 Gy irradiation of C3H mice (n=4) with BCN057 treatment (s.c.) at 24, 48, 72, 96, and 120 hrs. RBC- red blood cells (M/uL), HB-hemoglobin (g/dL), and HCT-hematocrit (%). B: recovery of the hematopoietic system following 6 Gy irradiation of C3H mice (n=4) with BCN057 treatment (s.c.) at 24, 48, 72, 96, and 120 hrs. WBC-white blood cells, NE-neutrophils, LY-lymphocytes. C: platelet (PLT) recovery following 6 Gy irradiation of C3H mice (n=4) with BCN057 treatment (s.c.) at 24,48,72,96, and 120 hrs; p<0.05 with a 1-tail, Student t-test.
# [3] = tested on: radiation dermatitis (erythema, edema); test: Draize scoring of dermal radiation sites, dermal dosing 10 mg/mL Day 0 to 6; format: in vivo; details: Avg of Days 1-6 and 8
# blood platelets = test: Platelet count in normal mice; format: in vivo, mouse; details: eight days oral or subcutaneous, 75-800 mg/kg/day
# Protocol: Normal mice were treated with BCN057 for eight days by oral administration or subcutaneous injection. Dose groups included 75 mg/kg/day, 200 mg/kg/day, 400 mg/kg/day, 500 mg/kg/day, and 800 mg/kg/day
# [4] = Solubility of BCN057 in aqueous formulations; format: physicochemical
# Protocol: Several formulations were developed to solubilize BCN057 in aqueous solution at physiologically compatible pHs. These include 100 mM methanesulfonic acid/10% povidone (PVP); 100 mM MSA/2% benzyl alcohol/2% N-methylpyrrolidone (NMP); and, 100 mM MSA/10% ethanol/1% Poloxamer 188.
# Several suitable formulations were developed for intravenous, subcutaneous and oral delivery of therapeutic levels of BCN057. These include 30 wt % Captisol (SBE-beta-CD) and 100 mM MSA at pH 4.1 (adjusted with 1.0 N NaOH).
# [5] = tested on: canonical Wnt-β catenin signaling; test: TCF/LEF luciferase reporter assay in HEK293 cells; format: cell-based; details: 10 mM, 24 h, positive control
# Protocol: LiCl (10 mM) treatment was used as positive control for luciferase activity. Luciferase activity was determined after 24 h using a Dual-Luciferase® Reporter Assay System (Promega) as per manufacturer's protocol. HEK293 cells containing a FOPFlash construct were used as a negative control.
Structure (SMILES),"cancer cell growth vs control (no drug) ([1]; 10 uM, 48 h, Leukemia, prostate and kidney cancer)","cancer cell growth vs untreated control ([1]; breast cancer, lung carcinoma, prostate, CNS, melanoma, ovarian, renal and colon cancer lines (FIG. 2))",plasma cytokine profile (plasma cytokines),lethality from bone marrow suppression [2],"hematopoietic recovery (RBC, HB, HCT, WBC, NE, LY, PLT) (hematopoietic system)",Average Draize score Edema [3],Average Draize score Edema Site 2 [3],Average Draize score Edema Site 3 [3],Average Draize score Edema Site 4 [3],Average Draize score Edema Site 5 [3],Average Draize score Edema Site 6 [3],Average Draize score Erythema Site 2 [3],Average Draize score Erythema Site 3 [3],Average Draize score Erythema Site 4 [3],Average Draize score Erythema Site 5 [3],Average Draize score Erythema Site 6 [3],platelet production (blood platelets),"solubility ([4]; 30 wt % Captisol (SBE-beta-CD) and 100 mM MSA, up to pH 4.1)",solubility ([4]; addition of 100 mM lactic acid to the MSA mixtures),luciferase activity [5]
"COc1ccc2cc(-c3nc4ccc(C)cn4c3NCc3ccco3)c(=O)[nH]c2c1 [BCN057, 3-(3((furan-2-ylmethyl)ammo)-6-methylimidazo[1,2-α]pyridine-2-yl)-6-methoxyquinolin-2(1H)-one]",inhibitory,susceptible,restores the cytokine profile to similar to that of the control,sufficient to prevent lethality from bone marrow suppression,evidence of improving hematopoietic recovery,0,0,0.5714,0,0.4286,0,0.1429,1.286,0.1429,1.429,0.4286,induces platelet production in a dose dependent fashion,excellent solubility,improved solubility,
"[Cl-].[Li+] [LiCl, reference compound]",,,,,,,,,,,,,,,,,,,,significantly increased luciferase activity
